Measured values published in US20080107619A1, “Carbohydrate based cellulase inhibitors as feeding stimulants in termites” (University of Florida Research Foundation, Inc., priority 2006, published 2008).

Tests used:
exoglucanase [1] = assay: In vitro exoglucanase inhibition, pNPC assay (I50 determination); type: biochemical, R. flavipes; conditions: foregut/salivary gland/midgut (endogenous) and hindgut (symbiotic) fractions, FIG. 4
Method: (§1) Gut dissections were carried out for cellulase distribution and inhibition studies. For dissections, termites were immobilized on ice, decapitated, and the entire digestive tract removed through a small incision made in the abdominal exoskeleton. For cellulase distribution studies, dissected guts were divided into three regions: (i) salivary gland+foregut, (ii) midgut and (iii) hindgut. For inhibition studies, guts were divided into two major components that included: (i) foregut, salivary gland and midgut, and (ii) hindgut. […]
(§2) Cellulase activity assays were adapted from Han et al. in “Characterization of a bifunctional cellulase and its structural gene,” J. Biol. Chem. 270 (1995) 26012-26019, with optimization for a 96-well microplate format. […] Color was allowed to develop on ice for 15 min before measuring absorbance at 540 nm relative to a glucose standard curve.
(§3) The hydrolysis product of both the pNPC and pNPG substrates is p-nitrophenol, which is yellow in color and permits for direct quantification of activity in a kinetic assay. pNPC and pNPG assays were initially incubated at 32° C. for 20 min before measuring the release of the product, p-nitrophenol, at 420 nm. The absorbance of reactions was read every 2 min for 1 hr and activity was determined based on rate of absorbance change. […]

β-glucosidase = assay: In vitro β-glucosidase inhibition, pNPG assay (I50 determination); type: biochemical, R. flavipes; conditions: foregut/salivary gland/midgut (endogenous) and hindgut (symbiotic) fractions, FIG. 4
Method: as §1, §2, §3

endoglucanase = assay: Post-feeding inhibition of endoglucanase activity in whole-body homogenates; type: in vivo, R. flavipes; conditions: after 24 days feeding, various concentrations; FIGS. 11A-11C
Method: (§4) Whole body homogenates were used for optimization and post-feeding inhibition studies. Here, 10-15 termite workers were homogenized in 1 to 1.5 ml ice-cold homogenization buffer with a Teflon-glass (Potter-Elvehjem) homogenizer powered by a motorized electric stirrer (Fisher Scientific). After homogenization, both gut region and whole-body preparations were centrifuged at 15,000× g and 4° C. for 15 min. The resulting supernatants from the different gut regions were used directly for subsequent enzyme assays. Supernatants from whole-body homogenates were passed through glass wool to remove excess lipids before proceeding with cellulase activity assays.
Cellulase activity assays were adapted from Han et al. in “Characterization of a bifunctional cellulase and its structural gene,” J. Biol. Chem. 270 (1995) 26012-26019, with optimization for a 96-well microplate format. The model substrates used to test for endoglucanase, exoglucanase and β-glucosidase activities were CMC (FIG. 1A), pNPC (FIG. 1B) and pNPG (FIG. 1C), respectively. The substrate concentration used for CMC was 0.5% (w/v), while pNPG and pNPC were used at 4 mM. All substrates were diluted in homogenization buffer. […] Color was allowed to develop on ice for 15 min before measuring absorbance at 540 nm relative to a glucose standard curve. […]

exoglucanase [2] = assay: Post-feeding inhibition of exoglucanase activity in whole-body homogenates; type: in vivo, R. flavipes; conditions: after 24 days feeding at 5 mM and above
Method: as §4, §2
as §3, with “nm.” for “nm. The absorbance of reactions was read every 2 min for 1 hr and activity was determined based on rate of absorbance change.”

Cel5A enzyme = target: T1, Cel5A enzyme (Salipaludibacillus agaradhaerens, UniProt O85465); conditions: Varrott et al.; read-out: I50 value; cited from earlier work
T1 sequence (O85465 27-400): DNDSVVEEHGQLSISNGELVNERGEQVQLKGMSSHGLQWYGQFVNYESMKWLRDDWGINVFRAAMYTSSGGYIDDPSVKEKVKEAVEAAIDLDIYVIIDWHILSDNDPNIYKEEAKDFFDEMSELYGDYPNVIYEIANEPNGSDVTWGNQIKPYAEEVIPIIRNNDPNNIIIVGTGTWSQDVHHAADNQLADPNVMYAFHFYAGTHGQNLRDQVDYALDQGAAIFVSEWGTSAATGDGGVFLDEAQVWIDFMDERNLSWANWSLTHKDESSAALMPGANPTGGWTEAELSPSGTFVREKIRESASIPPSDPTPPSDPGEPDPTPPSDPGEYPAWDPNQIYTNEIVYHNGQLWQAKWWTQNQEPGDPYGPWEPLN

## fluoromethyl glucose [FMG]
Exoglucanase [1]
  I50 against exoglucanase activity: virtually no inhibitory properties
β-glucosidase
  I50 against β-glucosidase activity: virtually no inhibitory properties

## OC[C@@H]1[C@@H](O[C@@H]2O[C@H](CO)[C@@H](O)[C@H](O)[C@H]2O)[C@H](O)[C@@H](O)c2nccn21 [CBI, cellobioimidazole]
Exoglucanase [1]
  I50 against exoglucanase activity: I50s in the nM-μM range
endoglucanase
  endoglucanase activity after feeding, reduction relative to controls: significant
β-glucosidase
  I50 against β-glucosidase activity: I50s in the nM-μM range
Exoglucanase [2]
  Exoglucanase activity, maximal reduction relative to controls: ~75%
Cel5A enzyme
  IC50: 88 µM
